# Values joined by “and” are separate entries in the source; they are usually repeats but may differ in a detail not shown here. Equal entries are not always repeated.
# Key:
# [1] = system: SARS-CoV-2-nLUC; assay: microbe, parasite or virus in culture; format: cell-based; conditions: GGTI vs DMSO; replicates
# [2] = system: SARS-CoV-2-nLuc in cells overexpressing W106R mutant FTase; format: cell-based
# [3] = system: omicron BA4.6 variant; assay: Drug combination, omicron BA4.6 in VeroE6, qRT-PCR; format: cell-based, SARS-CoV-2; conditions: replicates
# [4] = system: SARS-CoV-2-nLuc in cells overexpressing WT FTase; assay: microbe, parasite or virus in culture; format: cell-based; conditions: for luciferase activity (relative): WT
# [5] = system: SARS-CoV-2-nLUC; format: cell-based
structure (smiles),measurement,setting,value
Cc1nc[nH]c1CN1CCN(C(=O)N[C@@H](CC(C)C)C(=O)O)[C@@H](Cc2ccccc2)C1=O [GGTI2418],signal relative to DMSO (sheet S7A),[1],90.3685 and 93.0121 and 91.627 and 90.3081
"NC(=O)N1CCC(CC(=O)N2CCC([C@H]3c4ncc(Br)cc4CCc4cc(Cl)cc(Br)c43)CC2)CC1 [LNF, lonafarnib]",fold less effective in cells expressing mutant FTase vs WT,[2],~2 fold
same,IC50,[2]; read-out: Mut IC50,2.2 µM
same,S3E viral level relative to LNF 0/ NRTV 0,[3]; LNF 1/ NRTV 0,69.1766 and 49.5863 and 50.5202
same,S3D viral level relative to LNF 0/ RDV 0,[3]; LNF 1/ RDV 0,32.8373 and 32.7511 and 35.1123
same,S3E viral level relative to LNF 0/ NRTV 0,[3]; LNF 10/ NRTV 0,2.995 and 4.305 and 4.101
same,S3D viral level relative to LNF 0/ RDV 0,[3]; LNF 10/ RDV 0,2.77 and 3.103 and 2.149
same,IC50,"[4]; Severe acute respiratory syndrome coronavirus 2, Vero C1008, VeroE6 transfected with WT FNTB, 24 h",1.1 µM
same,luciferase activity (relative),[4]; Log[LNF} mM (printed) 0.09691,63.7112 and 63.9819 and 49.739 and 50.5313
same,luciferase activity (relative),[4]; Log[LNF} mM (printed) 0.39794,34.2371 and 34.2326 and 46.1621 and 47.4504
same,luciferase activity (relative),[4]; Log[LNF} mM (printed) 0.69897,15.3696 and 15.2721 and 16.4684 and 16.5029
same,luciferase activity (relative),[4]; Log[LNF} mM (printed) 1,6.188 and 5.457 and 5.008 and 4.944
same,luciferase activity (relative),[4]; Log[LNF} mM (printed) -0.20412,54.7411 and 54.7908 and 56.706 and 57.079
same,luciferase activity (relative),[4]; Log[LNF} mM (printed) -0.50515,62.6012 and 61.9491 and 68.0615 and 68.2295
same,luciferase activity (relative),[4]; Log[LNF} mM (printed) -0.80618,99.8257 and 98.9 and 84.2901 and 84.2134
same,luciferase activity (relative),[4]; Log[LNF} mM (printed) -1.10721,97.017 and 96.4383 and 93.6225 and 92.4394
"CC(C)(C)[C@H](NC(=O)C(F)(F)F)C(=O)N1C[C@H]2[C@@H]([C@H]1C(=O)N[C@H](C#N)C[C@@H]1CCNC1=O)C2(C)C [NRTV, nirmatrelvir]",S3E viral level relative to LNF 0/ NRTV 0,[3]; LNF 0/ NRTV 0.5,47.9329 and 37.1942 and 53.3183
same,S3E viral level relative to LNF 0/ NRTV 0,[3]; LNF 0/ NRTV 5,1.354 and 1.072 and 1.497
CN(C)C(=O)COC(=O)Cc1ccc(OC(=O)c2ccc(NC(=N)N)cc2)cc1 [camostat],infection signal (sheet S4F),[5],74.3368 and 81.9164 and 86.4071 and 85.3028 and 90.7155 and 94.6132 and 81.833 and 79.6415

# — paper PMC11721293 (JCI Insight, 2025)
